System: BV-2
Assay: Antiinflammatory activity in mouse BV2 cells assessed as inhibition of LPS-induced nitric oxide production after 24 hrs by Griess reagent based assay
Format: functional, cell-based
Settings: BV-2, 24 h

IC50: 41.2 µM
Compound: C[C@@H]1CSS[C@@H]2O[C@H](CO)[C@@H](O)[C@H](O)[C@H]2OC1=O

From ChEMBL document CHEMBL4196219, “Rare Thioglycosides from the Roots of Wasabia japonica” (J Nat Prod, 2018)
